SMILES strings stand for the structures.

Data set [1] in a line: Dissolution of ridogrel and sodium ridogrel from hard gelatin capsules, USP apparatus 2, 100 rpm, 900 mL phosphate buffer. The following applies: 10 mg in size 2 hard gelatin capsule, pH 5, 6 and 7. Type of data set: physicochemical. The protocol:
Into each of three size 2 hard gelatin capsules was weighed 10 mg of ridogrel. Into another three capsules was weighed 10 mg of the sodium ridogrel lyophilisate. The dissolution of ridogrel and sodium ridogrel into 900 mL of phosphate buffer at pH 5, 6 and 7 was tested (USP apparatus 2, 100 rpm).

Data set [2] in a line: Solubility of the drug in the colonic pH range. The class given is physicochemical. The following applies: pH 4.5 to 8.0.

For `O=C([O-])CCCCON=C(c1cccnc1)c1cccc(C(F)(F)F)c1.[Na+]` [sodium ridogrel], the “dissolution rate as a function of pH” value in data set [1] was “largely independent of pH”; in data set [1] (listed as sodium salt of ridogrel), “greatly improved dissolution rate”.
`O=C(O)CCCCO/N=C(/c1cccnc1)c1cccc(C(F)(F)F)c1` [ridogrel, (E)-5-[[[3-pyridinyl[3-(trifluoromethyl)phenyl]methylene]amino]oxy]pentanoic acid]: the “solubility in the colonic pH range” value in data set [2] was “low”.
